Laboratory results from US20200187502A1, “MICROBIOCIDAL OXADIAZOLE DERIVATIVES” (SYNGENTA PARTICIPATIONS AG, priority 2017, published 2020).

Assays:
[1] = test system: Puccinia recondita f. Sp. Tritici; assay: Fungicidal activity, wheat leaf disc preventative (brown rust); type: in vivo; conditions: foliar, 200 ppm in the applied formulation, wheat leaf segments cv. Kanzler, compared to untreated control, 7 to 9 days after application, read-out: disease control
How it was run: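 Preventative leaf-segment test: spray application of diluted formulated compound on wheat cv. Kanzler, spore inoculation after 1 day. Percent control relative to untreated segments rated 7 to 9 days post-application, with incubation at 19° C, 75% relative humidity, 12 h photoperiod.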

[2] = test system: Puccinia recondita f. Sp. Tritici; assay: Fungicidal activity, wheat leaf disc curative (brown rust); type: in vivo; conditions: foliar, 200 ppm in the applied formulation, wheat leaf segments cv. Kanzler, curative (applied 1 day after inoculation), compared to untreated control, 6 to 8 days after application, read-out: disease control
How it was run: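 Compounds, prepared from DMSO solutions of at most 10 mg/ml and diluted just before spraying, are applied curatively to inoculated Kanzler wheat leaf segments. Segments are incubated at 19° C and 75% RH in a climate cabinet; disease control relative to untreated is evaluated 6 to 8 days later.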

[3] = test system: Phakopsora pachyrhizi; assay: Fungicidal activity, soybean leaf disc preventative (Asian soybean rust); type: in vivo; conditions: foliar, 200 ppm in the applied formulation, soybean leaf disks, compared to untreated control, 12 to 14 days after application, read-out: disease control
How it was run: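 Read-out is percent disease control relative to untreated check discs, assessed once untreated discs show adequate disease, 12 to 14 days after application. Compounds, tested at 200 ppm in the applied formulation, are sprayed onto soybean leaf discs one day before inoculation with a spore suspension.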

[4] = test system: Glomerella lacenarium (Colletotrichum lacenarium); assay: Fungicidal activity, liquid culture, cucumber preventative (anthracnose); type: cell-based; conditions: 20 ppm in the applied formulation, liquid culture in PDB, inhibition of growth measured photometrically 3 to 4 days after application, compared to untreated control, read-out: disease control
How it was run: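 Spore-based broth assay: conidia mixed into PDB meet compound from a DMSO solution in 96-well format, incubate at 24° C., then inhibition of growth is determined by photometry 3–4 days later relative to the untreated check.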

COCC(=O)N(Cc1ccc(-c2noc(C(F)(F)F)n2)s1)C1CC1 [Compound 4.52, N-cyclopropyl-2-methoxy-N-[[5-[5-(trifluoromethyl)-1,2,4-oxadiazol-3-yl]-2-thienyl]methyl]acetamide]
≥ 80%: pest or weed control at 200 ppm [1] | pest or weed control at 200 ppm [2] | pest or weed control at 200 ppm [3] | inhibition of growth at 20 ppm [4]

COCCC(=O)N(Cc1ccc(-c2noc(C(F)(F)F)n2)s1)C1CC1 [Compound 4.55, N-cyclopropyl-3-methoxy-N-[[5-[5-(trifluoromethyl)-1,2,4-oxadiazol-3-yl]-2-thienyl]methyl]propanamide]
≥ 80%: pest or weed control at 200 ppm [1] | pest or weed control at 200 ppm [2] | pest or weed control at 200 ppm [3] | inhibition of growth at 20 ppm [4]

CCC(=O)NCc1ccc(-c2noc(C(F)(F)F)n2)s1 [Compound 2.5, N-[[5-[5-(trifluoromethyl)-1,2,4-oxadiazol-3-yl]-2-thienyl]methyl]propanamide]
≥ 80%: pest or weed control at 200 ppm [1] | pest or weed control at 200 ppm [2] | pest or weed control at 200 ppm [3] | inhibition of growth at 20 ppm [4]

CC1(C(=O)NCc2ccc(-c3noc(C(F)(F)F)n3)s2)CC1 [Compound 3.6, 1-methyl-N-[[5-[5-(trifluoromethyl)-1,2,4-oxadiazol-3-yl]-2-thienyl]methyl]cyclopropanecarboxamide]
≥ 80%: pest or weed control at 200 ppm [1] | pest or weed control at 200 ppm [2] | pest or weed control at 200 ppm [3] | inhibition of growth at 20 ppm [4]

CCN(Cc1ccc(-c2noc(C(F)(F)F)n2)s1)C(=O)NC(C)C [Compound 4.9, 1-ethyl-3-isopropyl-1-[[5-[5-(trifluoromethyl)-1,2,4-oxadiazol-3-yl]-2-thienyl]methyl]urea]
≥ 80%: pest or weed control at 200 ppm [1] | pest or weed control at 200 ppm [2] | pest or weed control at 200 ppm [3] | inhibition of growth at 20 ppm [4]

CON(Cc1ccc(-c2noc(C(F)(F)F)n2)s1)C(=O)C1CC1C (centres unmarked) [Compound 1.14, N-methoxy-2-methyl-N-[[5-[5-(trifluoromethyl)-1,2,4-oxadiazol-3-yl]-2-thienyl]methyl]cyclopropanecarboxamide]
≥ 80%: pest or weed control at 200 ppm [1] | pest or weed control at 200 ppm [2] | pest or weed control at 200 ppm [3] | inhibition of growth at 20 ppm [4]

CCN(Cc1ccc(-c2noc(C(F)(F)F)n2)s1)C(=O)C1CC1C (centres unmarked) [Compound 5.16, N-ethyl-2-methyl-N-[[5-[5-(trifluoromethyl)-1,2,4-oxadiazol-3-yl]-2-thienyl]methyl]cyclopropanecarboxamide]
≥ 80%: pest or weed control at 200 ppm [1] | pest or weed control at 200 ppm [2] | pest or weed control at 200 ppm [3] | inhibition of growth at 20 ppm [4]

CC(C)C(=O)N(C)Cc1ccc(-c2noc(C(F)(F)F)n2)s1 [Compound 4.10, N,2-dimethyl-N-[[5-[5-(trifluoromethyl)-1,2,4-oxadiazol-3-yl]-2-thienyl]methyl]propanamide]
≥ 80%: pest or weed control at 200 ppm [1] | pest or weed control at 200 ppm [2] | pest or weed control at 200 ppm [3] | inhibition of growth at 20 ppm [4]

CON(Cc1ccc(-c2noc(C(F)(F)F)n2)s1)C(=O)CC1CC1 [Compound 1.22, 2-cyclopropyl-N-methoxy-N-[[5-[5-(trifluoromethyl)-1,2,4-oxadiazol-3-yl]-2-thienyl]methyl]acetamide]
≥ 80%: pest or weed control at 200 ppm [1] | pest or weed control at 200 ppm [2] | pest or weed control at 200 ppm [3] | inhibition of growth at 20 ppm [4]

CN(Cc1ccc(-c2noc(C(F)(F)F)n2)s1)C(=O)C1(C)CC1 [Compound 5.21, N,1-dimethyl-N-[[5-[5-(trifluoromethyl)-1,2,4-oxadiazol-3-yl]-2-thienyl]methyl]cyclopropanecarboxamide]
≥ 80%: pest or weed control at 200 ppm [1] | pest or weed control at 200 ppm [2] | pest or weed control at 200 ppm [3] | inhibition of growth at 20 ppm [4]

CCN(Cc1ccc(-c2noc(C(F)(F)F)n2)s1)S(C)(=O)=O [Compound 6.16, N-ethyl-N-[[5-[5-(trifluoromethyl)-1,2,4-oxadiazol-3-yl]-2-thienyl]methyl]methanesulfonamide]
≥ 80%: pest or weed control at 200 ppm [1] | pest or weed control at 200 ppm [2] | pest or weed control at 200 ppm [3] | inhibition of growth at 20 ppm [4]

O=C(NCc1ccc(-c2noc(C(F)(F)F)n2)s1)C1CC1(F)F (centres unmarked) [Compound 3.2, 2,2-difluoro-N-[[5-[5-(trifluoromethyl)-1,2,4-oxadiazol-3-yl]-2-thienyl]methyl]cyclopropanecarboxamide]
≥ 80%: pest or weed control at 200 ppm [1] | pest or weed control at 200 ppm [2] | pest or weed control at 200 ppm [3] | inhibition of growth at 20 ppm [4]

CC(C)N(Cc1ccc(-c2noc(C(F)(F)F)n2)s1)C(=O)C1CC1 [Compound 5.5, N-isopropyl-N-[[5-[5-(trifluoromethyl)-1,2,4-oxadiazol-3-yl]-2-thienyl]methyl]cyclopropanecarboxamide]
≥ 80%: pest or weed control at 200 ppm [1] | pest or weed control at 200 ppm [2] | pest or weed control at 200 ppm [3] | inhibition of growth at 20 ppm [4]

C=CCN(C)C(=O)N(Cc1ccc(-c2noc(C(F)(F)F)n2)s1)OC [Compound 1.52, 1-allyl-3-methoxy-1-methyl-3-[[5-[5-(trifluoromethyl)-1,2,4-oxadiazol-3-yl]-2-thienyl]methyl]urea]
≥ 80%: pest or weed control at 200 ppm [1] | pest or weed control at 200 ppm [2] | pest or weed control at 200 ppm [3] | inhibition of growth at 20 ppm [4]

CN(Cc1ccc(-c2noc(C(F)(F)F)n2)s1)C(=O)C(N)=O [Compound 6.7, N′-methyl-N′-[[5-[5-(trifluoromethyl)-1,2,4-oxadiazol-3-yl]-2-thienyl]methyl]oxamide]
≥ 80%: pest or weed control at 200 ppm [1] | pest or weed control at 200 ppm [2] | pest or weed control at 200 ppm [3] | inhibition of growth at 20 ppm [4]

CC1CC1C(=O)NCc1ccc(-c2noc(C(F)(F)F)n2)s1 (centres unmarked) [Compound 3.5, 2-methyl-N-[[5-[5-(trifluoromethyl)-1,2,4-oxadiazol-3-yl]-2-thienyl]methyl]cyclopropanecarboxamide]
≥ 80%: pest or weed control at 200 ppm [1] | pest or weed control at 200 ppm [2] | pest or weed control at 200 ppm [3] | inhibition of growth at 20 ppm [4]

C=CCN(C)C(=O)N(Cc1ccc(-c2noc(C(F)(F)F)n2)s1)C1CC1 [Compound 4.88, 1-allyl-3-cyclopropyl-1-methyl-3-[[5-[5-(trifluoromethyl)-1,2,4-oxadiazol-3-yl]-2-thienyl]methyl]urea]
≥ 80%: pest or weed control at 200 ppm [1] | pest or weed control at 200 ppm [2] | pest or weed control at 200 ppm [3] | inhibition of growth at 20 ppm [4]

CCN(Cc1ccc(-c2noc(C(F)(F)F)n2)s1)C(=O)N(C)CC#N [Compound 4.70, 1-(cyanomethyl)-3-ethyl-1-methyl-3-[[5-[5-(trifluoromethyl)-1,2,4-oxadiazol-3-yl]-2-thienyl]methyl]urea]
≥ 80%: pest or weed control at 200 ppm [1] | pest or weed control at 200 ppm [2] | pest or weed control at 200 ppm [3] | inhibition of growth at 20 ppm [4]

COCCCC(=O)N(C)Cc1ccc(-c2noc(C(F)(F)F)n2)s1 [Compound 4.38, 4-methoxy-N-methyl-N-[[5-[5-(trifluoromethyl)-1,2,4-oxadiazol-3-yl]-2-thienyl]methyl]butanamide]
≥ 80%: pest or weed control at 200 ppm [1] | pest or weed control at 200 ppm [2] | pest or weed control at 200 ppm [3] | inhibition of growth at 20 ppm [4]

O=C(NC1CC1)N(Cc1ccc(-c2noc(C(F)(F)F)n2)s1)OCC(F)F [Compound 5.65, 3-cyclopropyl-1-(2,2-difluoroethoxy)-1-[[5-[5-(trifluoromethyl)-1,2,4-oxadiazol-3-yl]-2-thienyl]methyl]urea]
≥ 80%: pest or weed control at 200 ppm [1] | pest or weed control at 200 ppm [2] | pest or weed control at 200 ppm [3] | inhibition of growth at 20 ppm [4]

CCN(Cc1ccc(-c2noc(C(F)(F)F)n2)s1)C(=O)C(C)C [Compound 4.7, N-ethyl-2-methyl-N-[[5-[5-(trifluoromethyl)-1,2,4-oxadiazol-3-yl]-2-thienyl]methyl]propanamide]
≥ 80%: pest or weed control at 200 ppm [1] | pest or weed control at 200 ppm [2] | pest or weed control at 200 ppm [3] | inhibition of growth at 20 ppm [4]

CCC(C)C(=O)N(C)Cc1ccc(-c2noc(C(F)(F)F)n2)s1 (centres unmarked) [Compound 4.37, N,2-dimethyl-N-[[5-[5-(trifluoromethyl)-1,2,4-oxadiazol-3-yl]-2-thienyl]methyl]butanamide]
≥ 80%: pest or weed control at 200 ppm [1] | pest or weed control at 200 ppm [2] | pest or weed control at 200 ppm [3] | inhibition of growth at 20 ppm [4]

CN(CC#N)C(=O)N(C)Cc1ccc(-c2noc(C(F)(F)F)n2)s1 [Compound 4.76, 1-(cyanomethyl)-1,3-dimethyl-3-[[5-[5-(trifluoromethyl)-1,2,4-oxadiazol-3-yl]-2-thienyl]methyl]urea]
≥ 80%: pest or weed control at 200 ppm [1] | pest or weed control at 200 ppm [2] | pest or weed control at 200 ppm [3] | inhibition of growth at 20 ppm [4]
